Measurements taken from patent publication US9499492B2, “4-(ortho)-fluorophenyl-5-fluoropyrimidin-2-yl amines containing a sulfoximine group” (BAYER PHARMA AKTIENGESELLSCHAFT, priority 2012, dated 2016).
Like-named read-outs stand apart in the source and are kept apart here.

How the values were obtained:
[1] = molecular target: CDK2/CycE (Homo sapiens (Human), UniProt P24941); test: CDK2/CycE kinase assay (Method 2); assay type: biochemical; details: 10 μM ATP
From the text: 2. CDK2/CycE Kinase Assay:
CDK2/CycE-inhibitory activity of compounds of the present invention was quantified employing the CDK2/CycE TR-FRET assay as described in the following paragraphs:
Recombinant fusion proteins of GST and human CDK2 and of GST and human CycE, expressed in insect cells (Sf9) and purified by Glutathion-Sepharose affinity chromatography, were purchased from ProQinase GmbH (Freiburg, Germany). As substrate for the kinase reaction biotinylated peptide biotin-Ttds-[…] (C-terminus in amid form) was used which can be purchased e.g. form the company JERINI Peptide Technologies (Berlin, Germany).
(§1) For the assay 50 nl of a 100 fold concentrated solution of the test compound in DMSO was pipetted into a black low volume 384 well microtiter plate (Greiner Bio-One, Frickenhausen, Germany), 2 μl of a solution of CDK2/CycE in aqueous assay buffer [50 mM Tris/HCl pH 8.0, 10 mM MgCl2, 1.0 mM dithiothreitol, 0.1 mM sodium ortho-vanadate, 0.01% (v/v) Nonidet-P40 (Sigma)] were added and the mixture was incubated for 15 min at 22° C. to allow pre-binding of the test compounds to the enzyme before the start of the kinase reaction. […] The concentration of CDK2/CycE was adjusted depending of the activity of the enzyme lot and was chosen appropriate to have the assay in the linear range, typical concentrations were in the range of 130 ng/ml.
(§2) The resulting mixture was incubated 1 h at 22° C. to allow the formation of complex between the phosphorylated biotinylated peptide and the detection reagents. Subsequently the amount of phosphorylated substrate was evaluated by measurement of the resonance energy transfer from the Eu-chelate to the streptavidine-XL. Therefore, the fluorescence emissions at 620 nm and 665 nm after excitation at 350 nm was measured in a TR-FRET reader, e.g. a Rubystar (BMG Labtechnologies, Offenburg, Germany) or a Viewlux (Perkin-Elmer). The ratio of the emissions at 665 nm and at 622 nm was taken as the measure for the amount of phosphorylated substrate.

[2] = system: HeLa, human cervical tumour cells; test: Proliferation assay, HeLa (Method 3); assay type: cell-based; details: 4 days, crystal violet, read-out: Inhibition of HeLa cell proliferation IC50
Procedure: (§3) After 24 hours, the cells of one plate (zero-point plate) were stained with crystal violet (see below), while the medium of the other plates was replaced by fresh culture medium (200 μl), to which the test substances were added in various concentrations (0 μM, as well as in the range of 0.001-10 μM; the final concentration of the solvent dimethyl sulfoxide was 0.5%). The cells were incubated for 4 days in the presence of test substances. Cell proliferation was determined by staining the cells with crystal violet: the cells were fixed by adding 20 μl/measuring point of an 11% glutaric aldehyde solution for 15 minutes at room temperature. After three washing cycles of the fixed cells with water, the plates were dried at room temperature. The cells were stained by adding 100 μl/measuring point of a 0.1% crystal violet solution (pH 3.0). After three washing cycles of the stained cells with water, the plates were dried at room temperature. The dye was dissolved by adding 100 μl/measuring point of a 10% acetic acid solution. The extinction was determined by photometry at a wavelength of 595 nm. The change of cell number, in percent, was calculated by normalization of the measured values to the extinction values of the zero-point plate (=0%) and the extinction of the untreated (0 μm) cells (=100%).

[3] = system: A2780, human ovarian carcinoma cells; test: Proliferation assay, A2780 (Method 3); assay type: cell-based; details: A2780, 4 days, crystal violet, read-out: Inhibition of A2780 cell proliferation IC50
Procedure: as §3

[4] = molecular target: T1, CDK9/CycT1 (Homo sapiens (Human), UniProt P50750); test: CDK9/CycT1 kinase assay (Method 1a); assay type: biochemical; details: for IC50: 10 μM ATP; for Selectivity CDK9/CDK2: derived from Methods 1a. and 2.
From the text: 1a. CDK9/CycT1 Kinase Assay:
CDK9/CycT1-inhibitory activity of compounds of the present invention was quantified employing the CDK9/CycT1 TR-FRET assay as described in the following paragraphs:
(§4) Recombinant full-length His-tagged human CDK9 and CycT1, expressed in insect cells and purified by Ni-NTA affinity chromatography, were purchased from Invitrogen (Cat. No PV4131). As substrate for the kinase reaction biotinylated peptide biotin-Ttds-[…] (C-terminus in amid form) was used which can be purchased e.g. form the company JERINI Peptide Technologies (Berlin, Germany).
as §1, with “CDK9/CycT1” for “CDK2/CycE”, “1 μg/ml.” for “130 ng/ml.”
as §2, with “HTRF” for “TR-FRET”

[5] = molecular target: T1, CDK9/CycT1; test: CDK9/CycT1 high ATP kinase assay (Method 1b); assay type: biochemical; details: 2 mM ATP
Procedure: 1b. CDK9/CycT1 High ATP Kinase Assay
CDK9/CycT1-inhibitory activity of compounds of the present invention at a high ATP concentration after preincubation of enzyme and test compounds was quantified employing the CDK9/CycT1 TR-FRET assay as described in the following paragraphs.
as §4, with “were purchase” for “were purchased”, “JERINI peptide technologies” for “JERINI Peptide Technologies”
as §1, with “CDK9/CycT1” for “CDK2/CycE”, “0.5 μg/ml.” for “130 ng/ml.”
as §2, with “HTRF” for “TR-FRET”

T1 sequence (P50750 whole entry): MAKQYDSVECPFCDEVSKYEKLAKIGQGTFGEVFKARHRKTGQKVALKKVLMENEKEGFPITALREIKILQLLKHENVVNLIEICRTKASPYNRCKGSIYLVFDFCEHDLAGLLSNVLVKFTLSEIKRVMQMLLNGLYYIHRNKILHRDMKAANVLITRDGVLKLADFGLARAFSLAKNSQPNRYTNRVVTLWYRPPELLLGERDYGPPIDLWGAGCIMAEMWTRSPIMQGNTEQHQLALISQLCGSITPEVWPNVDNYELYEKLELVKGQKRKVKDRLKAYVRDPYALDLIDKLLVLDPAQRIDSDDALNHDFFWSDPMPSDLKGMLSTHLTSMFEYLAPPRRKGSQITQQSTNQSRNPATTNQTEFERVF
T1 sequence (O60563 whole entry partner): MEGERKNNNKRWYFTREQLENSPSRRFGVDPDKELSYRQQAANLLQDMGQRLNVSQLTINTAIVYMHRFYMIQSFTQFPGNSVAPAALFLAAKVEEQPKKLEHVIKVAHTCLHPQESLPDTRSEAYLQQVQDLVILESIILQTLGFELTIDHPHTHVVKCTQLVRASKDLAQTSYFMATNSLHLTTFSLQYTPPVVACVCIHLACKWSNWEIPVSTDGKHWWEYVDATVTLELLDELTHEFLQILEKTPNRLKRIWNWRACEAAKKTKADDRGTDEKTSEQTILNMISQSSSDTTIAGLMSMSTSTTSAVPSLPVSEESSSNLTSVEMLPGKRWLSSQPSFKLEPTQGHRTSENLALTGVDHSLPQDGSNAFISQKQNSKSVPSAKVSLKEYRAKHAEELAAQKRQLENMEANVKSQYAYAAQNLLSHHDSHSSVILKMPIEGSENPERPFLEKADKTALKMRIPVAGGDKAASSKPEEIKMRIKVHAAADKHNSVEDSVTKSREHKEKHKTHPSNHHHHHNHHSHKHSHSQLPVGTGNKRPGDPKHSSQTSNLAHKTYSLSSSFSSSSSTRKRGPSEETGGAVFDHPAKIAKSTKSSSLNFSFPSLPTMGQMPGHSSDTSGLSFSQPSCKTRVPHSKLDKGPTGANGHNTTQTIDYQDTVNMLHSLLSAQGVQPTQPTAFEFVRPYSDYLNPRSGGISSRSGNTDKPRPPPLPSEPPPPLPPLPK

IC50 [1] | IC50 ([2]; Homo sapiens, 96 h) | IC50 ([3]; Homo sapiens, A2780, 96 h) | Compound | also measured
– | 1320 nM | 900 nM | CS(=N)(=O)Cc1cc(F)cc(Nc2ncc(F)c(-c3ccc(F)cc3F)n2)c1 (racemic) [Example 11, (rac)-4-(2,4-Difluorophenyl)-5-fluoro-N-{3-fluoro-5-[(S-methylsulfonimidoyl)methyl]phenyl}pyrimidin-2-amine] | –
380 nM | 1600 nM | – | CS(=N)(=O)Cc1cc(Br)cc(Nc2ncc(F)c(-c3ccc(F)cc3F)n2)c1 (racemic) [Example 19, (rac)-N-{3-Bromo-5-[(S-methylsulfonimidoyl)methyl]phenyl}-4-(2,4-difluorophenyl)-5-fluoropyrimidin-2-amine] | IC50 [4]: 13 nM; Selectivity CDK9/CDK2 [4]: 30
1300 nM | – | – | N=S(=O)(CCN)Cc1cc(Nc2ncc(F)c(-c3ccc(F)cc3F)n2)cc(C(F)(F)F)c1 (single isomer, unassigned) [Example 26, N-[3-{[S-(2-Aminoethyl)sulfonimidoyl]methyl}-5-(trifluoromethyl)phenyl]-4-(2,4-difluorophenyl)-5-fluoropyrimidin-2-amine] | IC50 [5]: 278 nM
430 nM | 1060 nM | 619 nM | CS(=O)(Cc1cc(Br)cc(Nc2ncc(F)c(-c3ccc(F)cc3F)n2)c1)=NC#N (single isomer, unassigned) [Example 39, [(3-Bromo-5-{[4-(2,4-difluorophenyl)-5-fluoropyrimidin-2-yl]amino}benzyl)(methyl)oxido-λ^6-sulfanylidene]cyanamide] | –
509 nM | – | – | CS(=N)(=O)Cc1cc(Br)cc(Nc2ncc(F)c(-c3ccc(F)cc3F)n2)c1 (single isomer, unassigned) [Example 41, N-{3-Bromo-5-[(S-methylsulfonimidoyl)methyl]phenyl}-4-(2,4-difluorophenyl)-5-fluoropyrimidin-2-amine] | IC50 [4]: 18 nM; Selectivity CDK9/CDK2 [4]: 28

Further lines, the molecule ahead of its results:

Compound | IC50 [1] | IC50 ([2]; Homo sapiens, 96 h) | IC50 ([3]; Homo sapiens, A2780, 96 h) | also measured
CCOC(=O)N=S(C)(=O)Cc1cccc(Nc2ncc(F)c(-c3ccc(F)cc3F)n2)c1 (racemic) [Example 8, (rac)-Ethyl[(3-{[4-(2,4-difluorophenyl)-5-fluoropyrimidin-2-yl]amino}benzyl)(methyl)oxido-λ^6-sulfanylidene]carbamate] | 560 nM | 4470 nM | – | –
CS(=O)(Cc1cc(F)cc(Nc2ncc(F)c(-c3ccc(F)cc3F)n2)c1)=NC#N (racemic) [Example 10, (rac)-[(3-{[4-(2,4-Difluorophenyl)-5-fluoropyrimidin-2-yl]amino}-5-fluorobenzyl)(methyl)oxido-λ^6-sulfanylidene]cyanamide] | 570 nM | 1050 nM | 430 nM | –
Cc1cc(CS(C)(=O)=NC#N)cc(Nc2ncc(F)c(-c3ccc(F)cc3F)n2)c1 (racemic) [Example 16, (rac)-[(3-{[4-(2,4-Difluorophenyl)-5-fluoropyrimidin-2-yl]amino}-5-methylbenzyl)(methyl)oxido-λ^6-sulfanylidene]cyanamide] | 470 nM | 850 nM | 300 nM | –
COc1cc(CS(C)(=N)=O)cc(Nc2ncc(F)c(-c3ccc(F)cc3F)n2)c1 (racemic) [Example 21, (rac)-4-(2,4-Difluorophenyl)-5-fluoro-N-{3-methoxy-5-[(S-methylsulfonimidoyl)methyl]phenyl}pyrimidin-2-amine] | – | 780 nM | – | –
CS(=N)(=O)Cc1cc(F)cc(Nc2ncc(F)c(-c3ccc(F)cc3F)n2)c1 (single isomer, unassigned) [Example 12, 4-(2,4-Difluorophenyl)-5-fluoro-N-{3-fluoro-5-[(S-methylsulfonimidoyl)methyl]phenyl}pyrimidin-2-amine] | 1700 nM | 1940 nM | > 1000 nM | –
CS(=N)(=O)Cc1cc(F)cc(Nc2ncc(F)c(-c3ccc(F)cc3F)n2)c1 (single isomer, unassigned) [Example 13, 4-(2,4-Difluorophenyl)-5-fluoro-N-{3-fluoro-5-[(S-methylsulfonimidoyl)methyl]phenyl}pyrimidin-2-amine] | 730 nM | – | – | IC50 [2]: 1760 nM; IC50 [3]: > 1000 nM
Cc1cc(CS(C)(=O)=NC#N)cc(Nc2ncc(F)c(-c3ccc(F)cc3F)n2)c1 (single isomer, unassigned) [Example 35, [(3-{[4-(2,4-Difluorophenyl)-5-fluoro-pyrimidin-2-yl]amino}-5-methylbenzyl)-(methyl)oxido-λ^6-sulfanylidene]cyanamide] | 390 nM | – | 327 nM | IC50 [2]: 458 nM
Cc1cc(CS(C)(=O)=NC#N)cc(Nc2ncc(F)c(-c3ccc(F)cc3F)n2)c1 (single isomer, unassigned) [Example 36, [(3-{[4-(2,4-Difluorophenyl)-5-fluoro-pyrimidin-2-yl]amino}-5-methylbenzyl)-(methyl)oxido-λ^6-sulfanylidene]cyanamide] | 400 nM | – | – | IC50 [2]: 1020 nM; IC50 [3]: 338 nM
CS(=O)(Cc1cc(Br)cc(Nc2ncc(F)c(-c3ccc(F)cc3F)n2)c1)=NC#N (single isomer, unassigned) [Example 40, [(3-Bromo-5-{[4-(2,4-difluorophenyl)-5-fluoropyrimidin-2-yl]amino}benzyl)(methyl)oxido-λ^6-sulfanylidene]cyanamide] | 102 nM | – | – | IC50 [2]: 697 nM; IC50 [3]: 371 nM
